How the values were obtained:
Mu-type opioid receptor = Mu-type opioid receptor (Homo sapiens, UniProt P35372)
[1] = target: Voltage-dependent L-type calcium channel subunit alpha-1C (Rattus norvegicus, UniProt P22002); format: functional
Motilin receptor = Motilin receptor (Homo sapiens, UniProt O43193)
[2] = target: Sodium-dependent noradrenaline transporter (Homo sapiens, UniProt P23975)
Progesterone receptor [3] = target: T1, Progesterone receptor (Homo sapiens, UniProt P06401); format: functional
T1 sequence (P06401 whole entry): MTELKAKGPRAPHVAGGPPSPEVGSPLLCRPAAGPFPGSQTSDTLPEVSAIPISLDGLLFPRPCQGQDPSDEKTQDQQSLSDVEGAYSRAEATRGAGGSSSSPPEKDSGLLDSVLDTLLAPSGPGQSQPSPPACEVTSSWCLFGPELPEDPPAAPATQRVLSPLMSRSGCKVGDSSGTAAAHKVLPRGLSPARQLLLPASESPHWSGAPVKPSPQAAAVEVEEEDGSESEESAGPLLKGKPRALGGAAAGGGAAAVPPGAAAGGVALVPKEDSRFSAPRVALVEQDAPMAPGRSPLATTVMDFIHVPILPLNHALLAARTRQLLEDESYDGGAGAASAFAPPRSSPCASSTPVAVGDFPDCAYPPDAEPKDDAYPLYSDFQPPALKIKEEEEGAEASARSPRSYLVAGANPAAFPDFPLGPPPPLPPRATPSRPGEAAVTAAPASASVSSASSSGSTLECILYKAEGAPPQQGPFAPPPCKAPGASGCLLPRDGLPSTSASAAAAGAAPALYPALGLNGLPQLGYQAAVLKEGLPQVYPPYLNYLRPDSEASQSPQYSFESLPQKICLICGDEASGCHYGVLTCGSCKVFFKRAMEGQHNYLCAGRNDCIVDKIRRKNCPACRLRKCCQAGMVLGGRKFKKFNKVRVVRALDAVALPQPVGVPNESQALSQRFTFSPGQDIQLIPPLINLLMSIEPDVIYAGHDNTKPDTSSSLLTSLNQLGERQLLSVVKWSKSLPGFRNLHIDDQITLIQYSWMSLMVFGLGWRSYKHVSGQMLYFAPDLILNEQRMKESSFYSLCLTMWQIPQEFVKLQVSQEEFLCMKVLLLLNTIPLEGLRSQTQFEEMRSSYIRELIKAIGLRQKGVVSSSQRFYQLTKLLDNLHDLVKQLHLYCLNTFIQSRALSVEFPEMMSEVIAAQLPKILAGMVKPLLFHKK

Melanocortin receptor 3 = Melanocortin receptor 3 (Homo sapiens, UniProt P41968)
Melanocortin receptor 3, sequence (P41968 whole entry): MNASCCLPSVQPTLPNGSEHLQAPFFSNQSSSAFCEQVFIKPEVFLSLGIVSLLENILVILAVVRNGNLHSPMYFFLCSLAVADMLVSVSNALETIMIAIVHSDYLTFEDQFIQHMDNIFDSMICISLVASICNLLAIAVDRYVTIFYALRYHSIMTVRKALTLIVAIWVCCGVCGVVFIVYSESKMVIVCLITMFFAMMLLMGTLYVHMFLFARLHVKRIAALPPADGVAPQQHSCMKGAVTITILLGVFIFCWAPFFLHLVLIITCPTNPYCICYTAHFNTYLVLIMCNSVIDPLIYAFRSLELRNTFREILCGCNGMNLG

[4] = target: T2, Alpha-2B adrenergic receptor (Homo sapiens, UniProt P18089)
T2 sequence (P18089 whole entry): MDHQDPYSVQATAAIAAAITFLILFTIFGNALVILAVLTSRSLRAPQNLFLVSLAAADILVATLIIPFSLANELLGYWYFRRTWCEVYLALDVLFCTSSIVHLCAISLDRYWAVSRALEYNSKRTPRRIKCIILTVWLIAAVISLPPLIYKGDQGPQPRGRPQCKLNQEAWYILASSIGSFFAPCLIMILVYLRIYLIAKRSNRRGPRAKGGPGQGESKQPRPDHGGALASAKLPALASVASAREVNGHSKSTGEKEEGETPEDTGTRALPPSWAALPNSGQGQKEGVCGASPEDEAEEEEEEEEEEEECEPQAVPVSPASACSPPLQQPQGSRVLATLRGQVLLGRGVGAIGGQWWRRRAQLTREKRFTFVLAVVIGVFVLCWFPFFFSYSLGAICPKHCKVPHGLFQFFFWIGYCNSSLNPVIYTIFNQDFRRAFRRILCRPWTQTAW

[5] = target: T3, Neuropeptide Y receptor type 1 (Homo sapiens, UniProt P25929)
T3 sequence (P25929 whole entry): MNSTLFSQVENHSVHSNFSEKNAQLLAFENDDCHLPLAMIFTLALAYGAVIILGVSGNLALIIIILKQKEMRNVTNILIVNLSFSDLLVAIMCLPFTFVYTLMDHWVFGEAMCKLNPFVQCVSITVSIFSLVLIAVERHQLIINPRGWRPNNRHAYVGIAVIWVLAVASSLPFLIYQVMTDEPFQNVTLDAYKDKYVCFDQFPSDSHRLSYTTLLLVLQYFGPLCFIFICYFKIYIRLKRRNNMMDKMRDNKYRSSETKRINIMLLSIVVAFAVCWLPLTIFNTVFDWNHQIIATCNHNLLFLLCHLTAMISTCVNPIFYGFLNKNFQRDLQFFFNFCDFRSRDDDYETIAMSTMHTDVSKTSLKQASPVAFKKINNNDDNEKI

D(1A) dopamine receptor [6] = target: T4, D(1A) dopamine receptor (Homo sapiens, UniProt P21728); format: functional, cell-based
T4 sequence (P21728 whole entry): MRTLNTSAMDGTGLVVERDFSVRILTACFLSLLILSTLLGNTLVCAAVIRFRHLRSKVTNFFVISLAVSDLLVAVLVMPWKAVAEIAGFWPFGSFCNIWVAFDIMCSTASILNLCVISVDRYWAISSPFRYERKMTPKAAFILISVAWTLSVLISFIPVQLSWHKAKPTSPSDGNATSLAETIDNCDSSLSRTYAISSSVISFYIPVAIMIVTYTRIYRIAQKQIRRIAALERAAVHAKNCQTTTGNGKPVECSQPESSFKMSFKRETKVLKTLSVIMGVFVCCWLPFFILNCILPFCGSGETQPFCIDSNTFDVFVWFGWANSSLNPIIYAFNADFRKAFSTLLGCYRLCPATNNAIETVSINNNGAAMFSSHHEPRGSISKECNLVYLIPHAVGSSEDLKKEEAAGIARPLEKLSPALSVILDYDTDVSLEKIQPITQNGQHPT

Progesterone receptor [7] = target: T1, Progesterone receptor
D(1A) dopamine receptor [8] = target: T4, D(1A) dopamine receptor
Note: assay procedure not described here.

Voltage-dependent L-type calcium channel subunit alpha-1C, sequence (P22002 whole entry): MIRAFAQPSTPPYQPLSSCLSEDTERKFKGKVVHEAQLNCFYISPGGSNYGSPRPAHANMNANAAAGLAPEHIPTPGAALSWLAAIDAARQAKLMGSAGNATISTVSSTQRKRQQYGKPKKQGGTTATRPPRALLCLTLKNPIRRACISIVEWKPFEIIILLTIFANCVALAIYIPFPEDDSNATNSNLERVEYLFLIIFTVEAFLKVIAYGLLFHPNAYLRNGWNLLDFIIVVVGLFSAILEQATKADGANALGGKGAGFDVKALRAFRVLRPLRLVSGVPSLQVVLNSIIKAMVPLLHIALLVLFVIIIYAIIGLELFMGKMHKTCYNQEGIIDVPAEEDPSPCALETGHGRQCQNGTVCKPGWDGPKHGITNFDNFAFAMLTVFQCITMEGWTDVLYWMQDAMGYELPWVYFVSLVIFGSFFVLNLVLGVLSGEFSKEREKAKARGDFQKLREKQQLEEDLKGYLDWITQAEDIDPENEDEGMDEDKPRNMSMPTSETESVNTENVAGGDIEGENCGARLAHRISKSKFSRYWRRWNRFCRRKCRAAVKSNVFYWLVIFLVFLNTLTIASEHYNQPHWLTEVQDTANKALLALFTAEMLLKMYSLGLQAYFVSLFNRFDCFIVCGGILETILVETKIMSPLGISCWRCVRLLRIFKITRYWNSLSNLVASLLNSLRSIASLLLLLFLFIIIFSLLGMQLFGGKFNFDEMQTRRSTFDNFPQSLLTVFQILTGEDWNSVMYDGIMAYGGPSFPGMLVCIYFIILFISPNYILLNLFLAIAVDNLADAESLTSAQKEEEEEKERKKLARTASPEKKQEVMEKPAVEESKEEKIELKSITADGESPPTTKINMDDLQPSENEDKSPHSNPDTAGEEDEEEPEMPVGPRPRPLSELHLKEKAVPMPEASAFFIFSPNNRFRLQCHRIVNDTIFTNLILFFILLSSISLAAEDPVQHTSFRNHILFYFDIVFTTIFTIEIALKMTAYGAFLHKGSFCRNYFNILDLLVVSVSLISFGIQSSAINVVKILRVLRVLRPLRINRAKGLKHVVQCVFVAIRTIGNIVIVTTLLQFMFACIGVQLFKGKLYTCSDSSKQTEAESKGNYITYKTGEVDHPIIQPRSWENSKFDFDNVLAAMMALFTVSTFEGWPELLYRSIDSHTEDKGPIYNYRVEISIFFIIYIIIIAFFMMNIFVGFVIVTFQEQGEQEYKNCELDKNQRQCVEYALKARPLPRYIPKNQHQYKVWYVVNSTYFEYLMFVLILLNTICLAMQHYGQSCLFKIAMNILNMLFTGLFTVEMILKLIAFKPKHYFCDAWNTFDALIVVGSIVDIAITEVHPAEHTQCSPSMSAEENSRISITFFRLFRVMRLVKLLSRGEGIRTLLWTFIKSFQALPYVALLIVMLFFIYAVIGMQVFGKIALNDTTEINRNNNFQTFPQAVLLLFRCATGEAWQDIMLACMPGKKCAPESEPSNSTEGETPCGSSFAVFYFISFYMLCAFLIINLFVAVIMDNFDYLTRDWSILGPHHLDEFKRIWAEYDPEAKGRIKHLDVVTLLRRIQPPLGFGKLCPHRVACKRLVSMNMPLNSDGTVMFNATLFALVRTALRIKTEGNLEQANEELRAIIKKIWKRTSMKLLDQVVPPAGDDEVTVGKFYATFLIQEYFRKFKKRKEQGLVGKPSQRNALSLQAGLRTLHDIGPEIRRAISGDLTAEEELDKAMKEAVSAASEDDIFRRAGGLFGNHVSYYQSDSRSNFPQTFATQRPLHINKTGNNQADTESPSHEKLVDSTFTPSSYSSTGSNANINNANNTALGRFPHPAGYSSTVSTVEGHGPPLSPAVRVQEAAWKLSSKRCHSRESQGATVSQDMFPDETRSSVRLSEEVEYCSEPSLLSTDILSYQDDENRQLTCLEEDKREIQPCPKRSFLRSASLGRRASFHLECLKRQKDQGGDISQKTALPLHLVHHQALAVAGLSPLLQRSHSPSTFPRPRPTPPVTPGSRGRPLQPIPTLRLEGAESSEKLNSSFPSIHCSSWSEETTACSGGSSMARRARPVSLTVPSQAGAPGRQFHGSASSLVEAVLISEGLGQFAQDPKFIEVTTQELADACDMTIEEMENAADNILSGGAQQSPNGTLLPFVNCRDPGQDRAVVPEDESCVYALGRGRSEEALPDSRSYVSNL
Sodium-dependent noradrenaline transporter, sequence (P23975 whole entry): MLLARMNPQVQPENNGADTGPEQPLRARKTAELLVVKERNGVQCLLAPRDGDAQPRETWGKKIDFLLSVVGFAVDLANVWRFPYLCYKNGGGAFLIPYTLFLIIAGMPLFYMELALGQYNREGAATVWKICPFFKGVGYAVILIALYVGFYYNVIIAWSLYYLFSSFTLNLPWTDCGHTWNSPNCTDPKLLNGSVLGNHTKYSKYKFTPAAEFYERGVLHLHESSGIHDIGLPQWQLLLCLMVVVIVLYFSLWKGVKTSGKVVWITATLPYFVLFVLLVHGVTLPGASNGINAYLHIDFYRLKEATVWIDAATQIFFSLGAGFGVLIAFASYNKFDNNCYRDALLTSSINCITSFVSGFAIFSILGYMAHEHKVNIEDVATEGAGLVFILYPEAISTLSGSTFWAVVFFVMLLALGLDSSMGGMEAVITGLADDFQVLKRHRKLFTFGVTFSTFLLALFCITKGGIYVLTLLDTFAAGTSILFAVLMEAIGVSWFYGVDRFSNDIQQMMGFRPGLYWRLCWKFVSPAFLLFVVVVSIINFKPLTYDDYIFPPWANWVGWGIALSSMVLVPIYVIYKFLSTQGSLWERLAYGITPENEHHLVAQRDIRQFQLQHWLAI
Mu-type opioid receptor, sequence (P35372 whole entry): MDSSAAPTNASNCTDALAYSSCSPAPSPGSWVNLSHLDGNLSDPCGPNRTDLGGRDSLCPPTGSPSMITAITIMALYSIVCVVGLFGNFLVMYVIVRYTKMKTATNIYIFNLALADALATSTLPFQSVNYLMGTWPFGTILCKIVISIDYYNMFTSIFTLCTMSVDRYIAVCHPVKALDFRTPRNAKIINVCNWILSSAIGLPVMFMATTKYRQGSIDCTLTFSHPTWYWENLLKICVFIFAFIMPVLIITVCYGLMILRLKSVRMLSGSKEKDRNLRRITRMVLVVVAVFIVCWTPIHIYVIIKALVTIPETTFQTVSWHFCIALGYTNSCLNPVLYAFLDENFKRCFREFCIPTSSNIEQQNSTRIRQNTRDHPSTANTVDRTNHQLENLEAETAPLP
Motilin receptor, sequence (O43193 whole entry): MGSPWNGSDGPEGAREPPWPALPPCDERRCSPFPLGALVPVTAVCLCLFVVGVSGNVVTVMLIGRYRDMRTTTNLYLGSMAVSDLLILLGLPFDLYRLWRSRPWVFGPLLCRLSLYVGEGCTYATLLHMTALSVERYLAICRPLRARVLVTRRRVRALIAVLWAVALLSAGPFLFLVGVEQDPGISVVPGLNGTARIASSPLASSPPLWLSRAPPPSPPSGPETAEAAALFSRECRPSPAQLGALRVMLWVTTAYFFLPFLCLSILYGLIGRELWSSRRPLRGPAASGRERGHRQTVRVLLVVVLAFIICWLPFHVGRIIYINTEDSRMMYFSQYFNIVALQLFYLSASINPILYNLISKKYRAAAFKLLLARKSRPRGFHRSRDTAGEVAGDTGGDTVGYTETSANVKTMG

C[N+]1(C)CCC(=C(c2ccccc2)c2ccccc2)CC1
AC50 (Mu-type opioid receptor): > 30 µM | AC50 [1]: > 10 µM | AC50 (Motilin receptor): > 30 µM | AC50 [2]: > 10 µM | AC50 (Progesterone receptor [3]): > 10 µM | AC50 (Melanocortin receptor 3): > 30 µM | AC50 [4]: > 10 µM | AC50 [5]: > 30 µM | AC50 (D(1A) dopamine receptor [6]): > 10 µM

CN(C)Cc1nnc2n1-c1ccc(Cl)cc1C(c1ccccc1)=NC2 [ADINAZOLAM]
AC50 (Mu-type opioid receptor): > 30 µM | AC50 [1]: > 10 µM | AC50 (Motilin receptor): > 10 µM | AC50 [2]: > 10 µM | AC50 (Progesterone receptor [3]): > 10 µM | AC50 (Melanocortin receptor 3): > 10 µM | AC50 [4]: > 10 µM | AC50 [5]: > 10 µM | AC50 (D(1A) dopamine receptor [6]): > 10 µM

Cc1ccccc1-n1c(CF)nc2ccc(N)cc2c1=O [AFLOQUALONE]
AC50 (Mu-type opioid receptor): > 30 µM | AC50 [1]: > 10 µM | AC50 (Motilin receptor): > 30 µM | AC50 [2]: > 30 µM | AC50 (Progesterone receptor [3]): > 30 µM | AC50 (Melanocortin receptor 3): > 30 µM | AC50 [4]: > 10 µM | AC50 [5]: > 30 µM | AC50 (D(1A) dopamine receptor [6]): > 30 µM

CCOC(=O)c1ccc(N)cc1 [BENZOCAINE]
AC50 (Mu-type opioid receptor): > 30 µM | AC50 [1]: > 10 µM | AC50 (Motilin receptor): > 10 µM | AC50 [2]: > 10 µM | AC50 (Progesterone receptor [3]): > 10 µM | AC50 (Melanocortin receptor 3): > 10 µM | AC50 [5]: > 10 µM | AC50 (D(1A) dopamine receptor [6]): > 10 µM

CC(C)(Oc1ccc(CCNC(=O)c2ccc(Cl)cc2)cc1)C(=O)O [BEZAFIBRATE]
AC50 (Mu-type opioid receptor): > 30 µM | AC50 [1]: > 10 µM | AC50 (Motilin receptor): > 10 µM | AC50 [2]: > 10 µM | AC50 (Progesterone receptor [3]): > 10 µM | AC50 (Melanocortin receptor 3): > 10 µM | AC50 [5]: > 10 µM | AC50 (D(1A) dopamine receptor [6]): > 10 µM

CC(O)(CS(=O)(=O)c1ccc(F)cc1)C(=O)Nc1ccc(C#N)c(C(F)(F)F)c1 (configuration not stated) [BICALUTAMIDE]
AC50 (Mu-type opioid receptor): > 10 µM | AC50 [1]: > 10 µM | AC50 (Motilin receptor): > 30 µM | AC50 (Progesterone receptor [7]): 0.46 µM | AC50 [2]: > 30 µM | AC50 (D(1A) dopamine receptor [8]): > 30 µM | AC50 (Progesterone receptor [3]): > 30 µM | AC50 (Melanocortin receptor 3): > 30 µM | AC50 [5]: > 30 µM | AC50 (D(1A) dopamine receptor [6]): > 10 µM

CC(=O)O[C@]1(C(C)=O)CC[C@H]2[C@@H]3C=C(Cl)C4=CC(=O)[C@@H]5C[C@@H]5[C@]4(C)[C@H]3CC[C@@]21C [CYPROTERONE ACETATE]
AC50 (Mu-type opioid receptor): > 30 µM | AC50 [1]: > 10 µM | AC50 (Motilin receptor): > 10 µM | AC50 [2]: > 30 µM | AC50 (D(1A) dopamine receptor [8]): > 30 µM | AC50 (Melanocortin receptor 3): > 30 µM | AC50 [5]: > 30 µM

C/C=C(/C(=C/C)c1ccc(O)cc1)c1ccc(O)cc1 [DIENESTROL]
AC50 (Mu-type opioid receptor): > 30 µM | AC50 [1]: > 10 µM | AC50 (Motilin receptor): > 10 µM | AC50 [2]: > 30 µM | AC50 (Progesterone receptor [3]): > 30 µM | AC50 (Melanocortin receptor 3): > 10 µM | AC50 [4]: > 10 µM | AC50 [5]: > 10 µM | AC50 (D(1A) dopamine receptor [6]): > 10 µM

CN(C)CCCN1c2ccccc2CCc2ccccc21 [IMIPRAMINE]
AC50 (Mu-type opioid receptor): 8.1 µM | AC50 (Motilin receptor): > 10 µM | AC50 (Melanocortin receptor 3): 18.8 µM | AC50 [4]: 0.32 µM | AC50 [5]: > 30 µM | AC50 (D(1A) dopamine receptor [6]): > 10 µM

Cc1ccccc1N1C(=O)c2cc(S(N)(=O)=O)c(Cl)cc2NC1C (configuration not stated) [METOLAZONE]
AC50 (Mu-type opioid receptor): > 30 µM | AC50 [1]: > 10 µM | AC50 (Motilin receptor): > 10 µM | AC50 [2]: > 10 µM | AC50 (Progesterone receptor [3]): > 10 µM | AC50 (Melanocortin receptor 3): > 10 µM | AC50 [5]: > 10 µM | AC50 (D(1A) dopamine receptor [6]): > 10 µM

O=C(O)c1cccnc1Nc1cccc(C(F)(F)F)c1 [NIFLUMIC ACID]
AC50 (Mu-type opioid receptor): > 30 µM | AC50 [1]: > 10 µM | AC50 (Motilin receptor): > 10 µM | AC50 [2]: > 10 µM | AC50 (Progesterone receptor [3]): > 10 µM | AC50 (Melanocortin receptor 3): > 10 µM | AC50 [5]: > 10 µM | AC50 (D(1A) dopamine receptor [6]): > 10 µM

O=C1c2ccccc2C(=O)C1c1ccccc1 [PHENINDIONE]
AC50 (Mu-type opioid receptor): > 30 µM | AC50 [1]: > 10 µM | AC50 (Motilin receptor): > 10 µM | AC50 [2]: > 10 µM | AC50 (Progesterone receptor [3]): > 10 µM | AC50 (Melanocortin receptor 3): > 10 µM | AC50 [5]: > 10 µM | AC50 (D(1A) dopamine receptor [6]): > 10 µM

CN[C@@H](C)[C@@H](O)c1ccccc1 [PSEUDOEPHEDRINE]
AC50 (Mu-type opioid receptor): > 30 µM | AC50 [1]: > 10 µM | AC50 (Motilin receptor): > 10 µM | AC50 [2]: > 10 µM | AC50 (Melanocortin receptor 3): > 30 µM | AC50 [4]: > 10 µM | AC50 [5]: > 30 µM | AC50 (D(1A) dopamine receptor [6]): > 10 µM

COC(=O)[C@H]1[C@H]2C[C@@H]3c4[nH]c5cc(OC)ccc5c4CCN3C[C@H]2C[C@@H](OC(=O)c2cc(OC)c(OC)c(OC)c2)[C@@H]1OC [RESERPINE]
AC50 (Mu-type opioid receptor): > 30 µM | AC50 [1]: 8.83 µM | AC50 (Motilin receptor): > 10 µM | AC50 (Progesterone receptor [7]): > 30 µM | AC50 [2]: > 30 µM | AC50 (D(1A) dopamine receptor [8]): > 30 µM | AC50 (Progesterone receptor [3]): > 10 µM | AC50 (Melanocortin receptor 3): > 10 µM | AC50 [5]: > 10 µM | AC50 (D(1A) dopamine receptor [6]): > 10 µM

Source: ChEMBL document CHEMBL5291721, “A preclinical secondary pharmacology resource illuminates target-adverse drug reaction associations of marketed drugs” (Nat Commun, 2023)
